Data from patent publication US20260262643A1, “HERBICIDAL BENZOXAZINES” (FMC CORPORATION, priority 2022, published 2026).

Legend:
wheat [1] = assay: Test C postemergence; format: in vivo, Triticum aestivum; settings: 10 days
In short: (§1)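 Seeds in loam–sand blend received preemergence directed soil spray of test chemicals in non-phytotoxic solvent with surfactant; postemergence treatment was applied at one- to two-leaf stage (2–10 cm). After 10 days in greenhouse, injury rated visually versus untreated controls, 0 (no effect) to 100 (complete control).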

corn [2] = assay: Test C preemergence; format: in vivo, Zea mays; settings: 0 to 100 scale (0 no effect, 100 complete control)
In short: as §1

wheat [3] = assay: Test C preemergence; format: in vivo, Triticum aestivum; settings: 0 to 100 scale (0 no effect, 100 complete control)
In short: as §1

horseweed = assay: Test C postemergence; format: in vivo, Erigeron canadensis; settings: 10 days
In short: as §1

corn [4] = assay: Test C postemergence; format: in vivo, Zea mays; settings: 10 days
In short: as §1

oat, wild [5] = assay: Test C postemergence; format: in vivo, Avena fatua; settings: 10 days
In short: as §1

blackgrass [6] = assay: Test C postemergence; format: in vivo, Alopecurus myosuroides; settings: 10 days
In short: as §1

rice = assay: Test D flooded paddy test; format: in vivo, Oryza sativa; settings: 250 g ai/ha, applied to paddy water, visual rating after 13 to 14 days, scale 0 to 100 (0 no effect, 100 complete control)
In short: (§2)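 Post-flood water application at the 2-leaf stage; 3 cm flood depth kept constant; visual control rating 0–100 after 13–14 days greenhouse growth.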

kochia [7] = assay: Test C postemergence; format: in vivo, Bassia scoparia; settings: 10 days
In short: as §1

blackgrass [8] = assay: Test C preemergence; format: in vivo, Alopecurus myosuroides; settings: 0 to 100 scale (0 no effect, 100 complete control)
In short: as §1

sedge, umbrella = assay: Test D flooded paddy test; format: in vivo, Cyperus difformis; settings: 250 g ai/ha, applied to paddy water, visual rating after 13 to 14 days, scale 0 to 100 (0 no effect, 100 complete control)
In short: as §2

barnyardgrass [9] = assay: Test C preemergence; format: in vivo, Echinochloa crusgalli; settings: 0 to 100 scale (0 no effect, 100 complete control)
In short: as §1

ryegrass, Italian [10] = assay: Test C preemergence; format: in vivo, Lolium multiflorum; settings: 0 to 100 scale (0 no effect, 100 complete control)
In short: as §1

ducksalad = assay: Test D flooded paddy test; format: in vivo, Heteranthera limosa; settings: 250 g ai/ha, applied to paddy water, visual rating after 13 to 14 days, scale 0 to 100 (0 no effect, 100 complete control)
In short: as §2

ryegrass, Italian [11] = assay: Test C postemergence; format: in vivo, Lolium multiflorum; settings: 10 days
In short: as §1

ragweed [12] = assay: Test C preemergence; format: in vivo, Ambrosia artemisiifolia; settings: 0 to 100 scale (0 no effect, 100 complete control)
In short: as §1

barnyardgrass [13] = assay: Test D flooded paddy test; format: in vivo, Echinochloa crus-galli; settings: 250 g ai/ha, applied to paddy water, visual rating after 13 to 14 days, scale 0 to 100 (0 no effect, 100 complete control)
In short: as §2

kochia [14] = assay: Test C preemergence; format: in vivo, Bassia scoparia; settings: 0 to 100 scale (0 no effect, 100 complete control)
In short: as §1

barnyardgrass [15] = assay: Test C postemergence; format: in vivo, Echinochloa crusgalli; settings: 10 days
In short: as §1

green foxtail [16] = assay: Test C postemergence; format: in vivo, Setaria viridis; settings: 10 days
In short: as §1

pigweed, palmer [17] = assay: Test C postemergence; format: in vivo, Amaranthus palmeri; settings: 10 days
In short: as §1

soybean [18] = assay: Test C postemergence; format: in vivo, Glycine max; settings: 10 days
In short: as §1

pigweed, palmer [19] = assay: Test C preemergence; format: in vivo, Amaranthus palmeri; settings: 0 to 100 scale (0 no effect, 100 complete control)
In short: as §1

soybean [20] = assay: Test C preemergence; format: in vivo, Glycine max; settings: 0 to 100 scale (0 no effect, 100 complete control)
In short: as §1

oat, wild [21] = assay: Test C preemergence; format: in vivo, Avena fatua; settings: 0 to 100 scale (0 no effect, 100 complete control)
In short: as §1

ragweed [22] = assay: Test C postemergence; format: in vivo, Ambrosia artemisiifolia; settings: 10 days
In short: as §1

green foxtail [23] = assay: Test C preemergence; format: in vivo, Setaria viridis; settings: 0 to 100 scale (0 no effect, 100 complete control)
In short: as §1

[24] = 125 g ai/ha, postemergence, 0 to 100 scale, 0 no effect, 100 complete control
[25] = Postemergence, 500 g ai/ha, visual 0 to 100 scale (0 no effect, 100 complete control)
[26] = Preemergence, 500 g ai/ha, visual rating after 10 days
[27] = Test C, preemergence, 125 g ai/ha

## COc1cc(C(=O)N2C[C@H](C)Oc3c(Cl)cccc32)cc(-n2cnc(C3CC3)n2)c1 [Compound 216]
Wheat [1]; [24]
  Plant response rating, Wheat: 20
Wheat [1]; [25]
  Plant response rating, Wheat: 30
Corn [2]; [26]
  Plant response rating, Corn: 30
Corn [2]; [27]
  Corn plant response rating: 0
Wheat [3]; [26]
  Plant response rating, Wheat: 20
Wheat [3]; [27]
  Wheat plant response rating: 0
horseweed; [24]
  Plant response rating, Horseweed: 0
horseweed; [25]
  Plant response rating, Horseweed: 50
Corn [4]; [24]
  Plant response rating, Corn: 10
Corn [4]; [25]
  Plant response rating, Corn: 20
oat, wild [5]; [24]
  Plant response rating, Oat, Wild: 20
oat, wild [5]; [25]
  Plant response rating, Oat, Wild: 20
Blackgrass [6]; [24]
  Plant response rating, Blackgrass: 30
Blackgrass [6]; [25]
  Plant response rating, Blackgrass: 100
rice
  Plant response rating, Rice (Flood): 10
Kochia [7]; [24]
  Plant response rating, Kochia: 80
Kochia [7]; [25]
  Plant response rating, Kochia: 90
Blackgrass [8]; [26]
  Plant response rating, Blackgrass: 90
Blackgrass [8]; [27]
  Blackgrass plant response rating: 20
sedge, umbrella
  Plant response rating, Sedge, Umbrella (Flood): 95
Barnyardgrass [9]; [26]
  Plant response rating, Barnyardgrass: 90
Barnyardgrass [9]; [27]
  Barnyardgrass plant response rating: 40
ryegrass, Italian [10]; [26]
  Plant response rating, Ryegrass, Italian: 90
ryegrass, Italian [10]; [27]
  Ryegrass, Italian plant response rating: 80
ducksalad
  Plant response rating, Ducksalad (Flood): 100
ryegrass, Italian [11]; [24]
  Plant response rating, Ryegrass, Italian: 20
ryegrass, Italian [11]; [25]
  Plant response rating, Ryegrass, Italian: 60
Ragweed [12]; [26]
  Plant response rating, Ragweed: 40
Ragweed [12]; [27]
  Ragweed plant response rating: 0
Barnyardgrass [13]
  Plant response rating, Barnyardgrass (Flood): 40
Kochia [14]; [26]
  Plant response rating, Kochia: 100
Kochia [14]; [27]
  Kochia plant response rating: 70
Barnyardgrass [15]; [24]
  Plant response rating, Barnyardgrass: 10
Barnyardgrass [15]; [25]
  Plant response rating, Barnyardgrass: 60
Green foxtail [16]; [24]
  Plant response rating, Foxtail, Green: 70
Green foxtail [16]; [25]
  Plant response rating, Foxtail, Green: 90
pigweed, palmer [17]; [24]
  Plant response rating, Pigweed, Palmer: 80
pigweed, palmer [17]; [25]
  Plant response rating, Pigweed, Palmer: 90
Soybean [18]; [24]
  Plant response rating, Soybean: 100
Soybean [18]; [25]
  Plant response rating, Soybean: 100
pigweed, palmer [19]; [26]
  Plant response rating, Pigweed, Palmer: 100
pigweed, palmer [19]; [27]
  Pigweed, Palmer plant response rating: 100
Soybean [20]; [26]
  Plant response rating, Soybean: 100
Soybean [20]; [27]
  Soybean plant response rating: 50
oat, wild [21]; [26]
  Plant response rating, Oat, Wild: 40
oat, wild [21]; [27]
  Oat, Wild plant response rating: 0
Ragweed [22]; [24]
  Plant response rating, Ragweed: 60
Ragweed [22]; [25]
  Plant response rating, Ragweed: 80
Green foxtail [23]; [26]
  Plant response rating, Foxtail, Green: 100
Green foxtail [23]; [27]
  Foxtail, Green plant response rating: 100
